In patent US20240237649A1, “CRYSTALLINE FORMS OF 5-FLUORO-4-IMINO-3-METHYL-1-TOSYL-3,4-DIHYDROPYRIMIDIN-2-ONE, AND MIXTURES, COMPOSITIONS AND METHODS OF USE THEREOF” (Adama Makhteshim Ltd., priority 2021, published 2024):

Assay: Chemical stability: concentration / degradation of compound of Formula I in compositions on storage
[1] = SC composition at pH 4, Table 12

Method: The amount of degradation permitted before the degradation is considered to be significant depends on the concentration of the active ingredients in the composition.
The physical and chemical stability of composition of Example 5 was tested under various conditions including CIPAC conditions.

Cc1ccc(S(=O)(=O)n2cc(F)c(=N)n(C)c2=O)cc1 [Form III, 5-fluoro-4-imino-3-methyl-1-tosyl-3,4-dihydropyrimidin-2(1H)-one]
stability in oil dispersion (OD) composition compared with suspension concentrate (SC) composition: more stable

Cc1ccc(S(=O)(=O)n2cc(F)c(=N)n(C)c2=O)cc1 [compound of Formula I, 5-fluoro-4-imino-3-methyl-1-tosyl-3,4-dihydropyrimidin-2(1H)-one]
amount of the compound of Formula I in the composition, after decrease [1]: 31.1 % by weight based on the total weight of the composition | amount of the compound of Formula I in the composition, before decrease [1]: 44.4 % by weight based on the total weight of the composition

Cc1ccc(S(=O)(=O)n2cc(F)c(=N)n(C)c2=O)cc1 [Hydrate I (45% Hydrate, and 55% Form I Polymorph)] [5-fluoro-4-imino-3-methyl-1-tosyl-3,4-dihydropyrimidin-2(1H)-one]
% Water Content (total water in the composition, including free water and water in the hydrate): 0.29%
